# Assay results as given in patent publication US10913781B2, “Pepducin design and use” (Tufts Medical Center, Inc., priority 2011, dated 2021).
# Like-named read-outs stand apart in the source and are kept apart here. Peptide text beside a SMILES is read from it. * marks the point of attachment. Palmitoyl = CCCCCCCCCCCCCCCC(=O)*
# How the values were obtained:
# [1] = system: A549, HOP62, and HOP92 lung carcinoma cell lines; assay: Cytotoxicity/cell viability of lung carcinoma cells (MIT assay); format: cell-based, human; conditions: 3-day period
# [2] = system: A549 xenografts; format: in vivo, mouse; conditions: mouse, in vivo
# Procedure: (§1) FIG. 13 illustrates that monotherapy with PAR1-i3 pepducins inhibits tumor progression of A549 xenografts. (A) and (B): A549 mice treated with vehicle, P1pal-7, P1pal-i1-11, P1pal-10S, X1/2-i1, X1/2-i3, or Avastin. Each time point represents the mean±SE. (C): Final tumor volume at the completion of the experiment was calculated as a percentage of untreated vehicle control. (D): Serum-starved A549 adenocarcinoma cells were pretreated with P1pal-7, P1pal-10S, P1pal-i1-11, vehicle, or PD98059 and stimulated with thrombin. VEGF production was assessed by enzyme-linked immunosorbent assay. Data are expressed as mean±SD (*P<0.05, **P<0.01).
# PAR1 expression level is correlated with reduced survival of patients with NSCLC. To define the relative importance of PAR1 in lung tumor progression, in vivo mouse models were used. […] An A549 lung adenocarcinoma xenograft model in nude mice was used to evaluate monotherapy with P1pal-7, P1pal-10S, P1pal-i1-11, or the VEGF antagonist Avastin.
# [3] = Pharmacokinetics of PAR1 pepducins in CF-1 mice, plasma LC/MS/MS; format: in vivo, mouse; conditions: for Cmax: read-out: Peak plasma level
# Procedure: FIG. 14 illustrates pharmacokinetics of PAR1 pepducins. (A): CF-1 mice were injected subcutaneously with P1pal-7 (3 mg/kg, open circles), P1pal-7 (10 mg/kg, closed circles), P1pal-10S (10 mg/kg, gray circles), or P1pal-i1-11 (10 mg/kg, open squares) in 20% dimethyl sulfoxide and blood was collected at indicated time points (n=3). Pepducin levels in plasma were quantified with LC/MS/MS. (B): Daily (D1 to D6) plasma levels of P1pal-7 after subcutaneous injection of 10 mg/kg P1pal-7 were measured at 1 hour (open circles) and 24 hours (open squares).
# Pharmacokinetics of plasma levels of P1pal-7, P1pal-10S, and P1pal-i1-11 at 30 minutes, and at 1, 2, 4, 6, 8, and 16 hours was measured by LC/MS/MS to determine steady-state pepducin drug levels and the rate of elimination from mice. Subcutaneous injections of P1pal-7 (3 mg/kg or 10 mg/kg) into wild-type CF-1 mice (25 to 30 g) was followed by blood collection at various time points from the vena cava. […] Residual P1pal-7 levels were 10 nmol/L at the 16-hour time point. After the 4-hour plateau, the elimination rate was linear from 4 to 16 hours. The peak plasma level of 3 mg/kg P1pal-7 reached 0.6 μmol/L at 2 hours and elimination was linear between 2 hours and 16 hours. P1pal-10S (10 mg/kg) gave similar peak plasma level of 1.0 μmol/L as P1pal-7 (10 mg/kg) at 1 hour.
# Lastly, the peak plasma level of P1pal-7 (10 mg/kg) was measured before and 1 hour after once-daily subcutaneous injection over 6 days to determine whether the peak plasma levels were consistent on daily administration.
# [4] = biological target: T1, PAR1 (Homo sapiens, UniProt P25116); assay: Migration of primary patient lung tumor cells; format: cell-based; set-up: endogenous in cells; host or cells: A549, HOP62, H1299, H522, H226, HOP92 lung carcinoma lines
# T1 sequence (P25116 22-425): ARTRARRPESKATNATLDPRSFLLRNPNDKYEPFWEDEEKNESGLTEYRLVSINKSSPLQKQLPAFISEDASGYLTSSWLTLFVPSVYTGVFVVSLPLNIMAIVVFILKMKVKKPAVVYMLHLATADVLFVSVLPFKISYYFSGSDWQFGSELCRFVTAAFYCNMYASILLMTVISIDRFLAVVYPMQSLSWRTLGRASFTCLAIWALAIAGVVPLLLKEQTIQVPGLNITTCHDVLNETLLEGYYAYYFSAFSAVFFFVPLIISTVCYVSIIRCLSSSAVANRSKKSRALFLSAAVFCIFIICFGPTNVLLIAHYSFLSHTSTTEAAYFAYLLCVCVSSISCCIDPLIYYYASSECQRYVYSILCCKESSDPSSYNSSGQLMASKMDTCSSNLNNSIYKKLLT
# Procedure: FIG. 12 illustrates that PAR1 is a promigratory factor in lung cancer cells. (A-F): Inhibition of lung cancer migration in adenocarcinomas A549, HOP62, H1299 and H522, H226 squamous, and HOP92 large cell using PAR1 pepducins. Pepducins at […] (P1pal-7, P1pal-10S, P1pal-i1-11, or negative control P1pal-19EE) were added to the lower well. (G): Cell from primary lung tumors or nonmalignant control were pretreated with PAR1 pepducins and migration was determined (*P<0.05, **P<0.01).
# Further experiments were carried out to determine whether migration of the primary carcinoma cell lines isolated from lung tumors could be inhibited by PAR1 pepducins (FIG. 12G). […] Likewise, the RWJ-56110 small-molecule antagonist of PAR1 (Andrade-Gordon, et al., Proc. Natl Acad Sci USA, 96 (1999), pp. 12257-12262) suppressed up to 55% of the migration of primary lung tumor cells toward NIH-3T3 conditioned media. The PAR1 antagonist pepducin P1pal-7 and P1pal-i1-11 had no effect on the low-expressing PAR1 cell line derived from benign lung tissue, which migrated poorly (FIG. 12G).
# [5] = system: VEGF-A production; assay: Thrombin-dependent VEGF-A production in A549 cells (ELISA); format: cell-based, human; conditions: A549, 18 hours thrombin treatment
# Procedure: as §1
# Because the i3-based P1pal-7 pepducin had similar efficacy as Avastin in suppressing lung tumor growth of A549 xenografts, VEGF-A production was measured in the A549 tumor cells after 18 hours thrombin treatment. […] Unlike in ovarian cancer, no increase was found in PAR1-mediated IL-8 production in A549 cells, consistent with the observed lack of efficacy of CXCR1/2 pepducins in the A549 xenograft models. These xenograft data provide support for the role of a novel PAR1-ERK1/2-VEGF paracrine pathway that is an effective therapeutic target in the A549 adenocarcinoma lung cancer model.
# [6] = biological target: T1, PAR1; assay: ERK1/2 phosphorylation in A549 cells (thrombin or […]), Western blot; format: cell-based; set-up: endogenous in cells; host or cells: A549, HOP62, H1299, H522, H226, HOP92 lung carcinoma lines
# Procedure: FIG. 9 illustrates that differential inhibition of PAR1-ERK activation by i3- and i1-derived PAR1 pepducins. (A-C): Western blots of lysates from A549 cells untreated, or treated with thrombin, SLIGKV (SEQ ID NO:29), or AYPGKF (SEQ ID NO:5). Indicated samples were pretreated with various concentrations (0.1 to 3 μmol/L) of P1pal-7, P1pal-10S, or P1pal-i1-11 before stimulation and immunoblotted with anti-phospho-ERK. (D-F): Quantification of the Western blots in (A-C) were conducted by densitometry and results are expressed relative to maximum (fold max) phosphorylation of pERK.
# (B): A549 cells stimulated with 10 μM […] over 2 h. A549 cells pretreated with 0.1 μM P1pal-7 and stimulated with 10 μM […] (SEQ ID NO:30) for 5 min. Total ERK was used as a loading control.
# Last, there has been a great deal of interest in understanding the mechanism of PAR1-mediated activation of MAP kinase cascade and PAR1-dependent cellular growth and differentiation, proliferation and gene transcription. […] The effects of i1 versus i3 PAR1 pepducins on ERK1/2 activation were examined in the A549 lung adenocarcinoma cell line. […] Inhibition experiments with a range of pepducin concentrations (0.1-3 μM) were conducted. […] The […] (SEQ ID NO:30) peptide gave a rapid and transient ERK1/2 phosphorylation signal that peaked at 5-15 min after stimulation. […] To determine the specificity of the PAR1 pepducin inhibitors, their effects on the closely related PAR2 and PAR4 receptors were also tested.
Structure (SMILES),Sensitivity of A549 cells (cytotoxicity) [1],Inhibition of tumor progression/growth (final tumor volume vs vehicle) [2] [%],Duration of peak plasma level ([3]; 10 mg/kg s.c.) [h],"Cmax ([3]; CF-1, mouse, plasma, sc, 3 mg/kg s.c.) [nM]","level at time molar at 6 h ([3]; CF-1, mouse, plasma, sc, 10 mg/kg s.c., read-out: Plasma level at the 6-hour time point) [nM]","level at time molar at 16 h ([3]; CF-1, mouse, plasma, sc, 10 mg/kg s.c., read-out: Residual plasma level at the 16-hour time point) [nM]","Accumulation in plasma after daily dosing ([3]; daily subcutaneous dosing, mouse)","Cmax ([3]; mouse, plasma, sc, 10 mg/kg s.c., CF-1 mice) [nM]",Effect on migration of low-expressing PAR1 cell line derived from benign lung tissue [4],Effect on thrombin-dependent VEGF-A production [5],"Block of PRSFLLRN-induced phospho-ERK signal ([6]; 0.1 μM pepducin, 10 μM PRSFLLRN, 5 min, A549)","Effect on thrombin-induced ERK1/2 phosphorylation ([6]; A549 cells, pepducin 0.1-3 μM)",Inhibition of migration of primary lung tumor cells ([4]; primary lung tumors)
CCCCCCCCCCCCCCCC(=O)N[C@@H](CCCCN)C(=O)N[C@@H](CCCCN)C(=O)N[C@@H](CO)C(=O)N[C@@H](CCCNC(=N)N)C(=O)N[C@@H](C)C(=O)N[C@@H](CC(C)C)C(=O)N[C@@H](Cc1ccccc1)C(N)=O [P1pal-7] (Palmitoyl-KKSRALF-NH2),most sensitive,75,4,600,200,10,does not accumulate in plasma,1100,no effect,completely blocked,completely block,complete inhibition,
"NCC[C@H](NC(=O)[C@H](Cc1ccc(F)c(F)c1)NC(=O)Nc1ccc2c(CN3CCCC3)cn(Cc3c(Cl)cccc3Cl)c2c1)C(=O)NCc1ccccc1 [RWJ-56110, reference compound]",,,,,,,,,,,,,up to 55%
